From PubChem BioAssay AID2060604 (Molecular Pharmacology Branch, DTP, NCI, 2025)
Several values for one entry are separate records, joined by “and”; a condition that tells them apart may be missing. Equal entries are not always repeated.

Tested on: 379773-124-R-J2-PDC complex spheroids, viability % test/control
Experiment: Anticancer human tumor 379773-124-R-J2-PDC patient-derived endometrial carcinoma cell line growth inhibition [CLK]
Details: for viability, T/C: stronger effect = lower value
Excerpt: A high-throughput screen of multi-cell type tumor spheroids was designed to identify active combinations of […] and targeted small molecules. Complex spheroids include a stromal component modeled by human endothelial cells (HUVEC) and fibroblasts modeled by human mesenchymal stem cells (MSCs). The concentration ranges selected for each drug and investigational agent were based upon clinically achievable concentrations if the clinical Cmax of the agent was known.
Compounds. The drugs and investigational agents: cirtuvivint (SM08502; NSC835563), CC-671 (NSC850746), vemurafenib (NSC761431), tapotoclax (NSC804041), sotorasib (NSC818433), adagrasib (NSC831453), MRTX-1133 (NSC836407), BAY2416964 (NSC825713), copanlisib (NSC816437), inavolisib (NSC800729), abemaciclib (NSC768073), osimertinib (NSC779217), entinostat (NSC756642), eltanexor (KPT-8602, NSC794443), venetoclax (NSC766270), ceralasertib (NSC777638), bortezomib (NSC756655), olaparib (NSC753686), talazoparib (NSC767125), alisertib (NSC759677), peposertib (NSC802822), gemcitabine (NSC613327), 5-fluorouracil (NSC19893), SN-38 (NSC673596), oxaliplatin (NSC266046), paclitaxel (NSC125973), and doxorubicin (NSC123127), were obtained from the National Cancer Institute (NCI) Developmental Therapeutics Program Chemical Repository. The FDA-approved anticancer drug set is available from the Developmental Therapeutics Program at https://dtp.cancer.gov/organization/dscb/obtaining/available plates.htm. […] The stock solutions were prepared in dimethyl sulfoxide (DMSO, Sigma-Aldrich, St. Louis, MO, cat. D2650), except for the platinum complexes which were prepared in saline (Quality Biological, Gaithersburg, MD, cat. 114-055-101), at 800-fold the tested concentration and stored at -70 degrees C prior to their use. All drugs and investigational agents were tested over a range starting from a high concentration at or near the clinical Cmax and decreasing in half-log increments. If the clinical Cmax for an agent had not been determined, the highest concentration tested was 10 microM.
Cell Culture. All cells were maintained in an incubator at 37 degrees C and 5% CO2 with 95% humidity. The PDC lines were cultured according to standard operating procedures established by the NCI PDMR. Briefly, all PDCs were thawed and cultured in Matrigel-coated flasks prepared with a working solution of 1X Ham's F-12 nutrient mix, without supplementation (Invitrogen, Waltham, MA, cat. 11765054), 100 U/mL penicillin-streptomycin (Invitrogen, cat. 15140122), and 2.5% Matrigel (Corning Inc., Corning, NY, cat. 354248) for the first three passages. The 947758-054-R-J2-PDC line was cultured in 6B/Colon 1A media, which includes advanced DMEM/F-12 (Thermo Fisher Scientific, cat. 12634028), 10 mM HEPES (Thermo Fisher Scientific, cat. 15630080), 1X GlutaMAX supplement (Thermo Fisher Scientific, cat. 35050061), 0.1 mg/mL primocin (InvivoGen, cat. ant-pm-2), 10% defined fetal bovine serum, heat inactivated (HyClone Laboratories Inc., cat. SH30070.03HI), 1.25 mM N-Acetyl-L-cysteine (Sigma-Aldrich, cat. A9165), 10 mM nicotinamide (Sigma-Aldrich, cat. N0636), 1X B-27 supplement (Thermo Fisher Scientific, cat. 17504044), 1X N-2 supplement (Thermo Fisher Scientific, cat. 17502048), and 10 microM Y-27632 dihydrochloride (Tocris Bioscience, cat. 1254). The 876862-298-R-J1-PDC was cultured in 6E media, which includes all 6B/Colon 1A media components plus 50% L-WRN conditioned media (ATCC, cat. CRL-3276), 50 ng/mL recombinant human EGF recombinant protein (hEGF; Thermo Fisher Scientific, cat. PHG0311), 10 ng/mL recombinant human fibroblast growth factor 10 (hGFG-10; PeproTech, cat. 100-26), 1 ng/mL recombinant human fibroblast growth factor 2 (hFGF-2; PeproTech, cat. 100-18B), and 1 µM prostaglandin E2 (PGE2; Tocris, cat. 2296). The 227483-062-R1-J1-PDC line was cultured in Panc media, containing all 6E components except hFGF-2, with the addition of 500 nM SB-431542 (Selleckchem, cat. S1067) and 10 nM gastrin (Tocris, cat. 3006). […]

[1] = curve of first compound, second compound 0.0316 µM
[2] = curve of first compound, second compound 0.1 µM
[3] = curve of first compound, second compound 0.316 µM
[4] = curve of first compound, second compound 1 µM
[5] = curve of first compound, second compound 3.16 µM
[6] = curve of first compound, second compound 10 µM
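Further: compound exposure lasted seven days before the viability readout.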
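Wherever viability, T/C is given: 100% = DMSO vehicle control wells.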

NC(=O)C(=Cn1cnc(-c2cc(C(F)(F)F)cc(C(F)(F)F)c2)n1)c1cncnc1 + CN1CCN(c2cc(C(=O)Nc3cc4cc(-c5cnn(C)c5)ccc4cn3)ccn2)CC1
IC50 [1]: 59 nM | IC50 [2]: 47.7 nM | IC50 [3]: < 9.49 nM | IC50 [4]: < 9.49 nM | IC50 [5]: < 9.49 nM | IC50 [6]: < 9.49 nM | viability, T/C (second compound 0.0316 µM, first compound 0.00949 µM): 84.8% | viability, T/C (second compound 0.0316 µM, first compound 0.03 µM): 64.5% | viability, T/C (second compound 0.0316 µM, first compound 0.0949 µM): 39.2% | viability, T/C (second compound 0.0316 µM, first compound 0.3 µM): 22.6% | viability, T/C (second compound 0.0316 µM, first compound 0.949 µM): 11.4% | viability, T/C (second compound 0.0316 µM, first compound 3 µM): 5.29% | viability, T/C (second compound 0.1 µM, first compound 0.00949 µM): 60.4% | viability, T/C (second compound 0.1 µM, first compound 0.03 µM): 57.7% | viability, T/C (second compound 0.1 µM, first compound 0.0949 µM): 39.9% | viability, T/C (second compound 0.1 µM, first compound 0.3 µM): 17.9% | viability, T/C (second compound 0.1 µM, first compound 0.949 µM): 8.03% | viability, T/C (second compound 0.1 µM, first compound 3 µM): 2.96% | viability, T/C (second compound 0.316 µM, first compound 0.00949 µM): 16.4% | viability, T/C (second compound 0.316 µM, first compound 0.03 µM): 14.8% | viability, T/C (second compound 0.316 µM, first compound 0.0949 µM): 7.32% | viability, T/C (second compound 0.316 µM, first compound 0.3 µM): 3.49% | viability, T/C (second compound 0.316 µM, first compound 0.949 µM): 1.06% | viability, T/C (second compound 0.316 µM, first compound 3 µM): 0.04% | viability, T/C (second compound 1 µM, first compound 0.00949 µM): 0.1% | viability, T/C (second compound 1 µM, first compound 0.03 µM): 0.12% | viability, T/C (second compound 1 µM, first compound 0.0949 µM): 0.3% | viability, T/C (second compound 1 µM, first compound 0.3 µM): 0.14% | viability, T/C (second compound 1 µM, first compound 0.949 µM): 1.96% | viability, T/C (second compound 1 µM, first compound 3 µM): 0.06% | viability, T/C (second compound 3.16 µM, first compound 0.00949 µM): 2.45% | viability, T/C (second compound 3.16 µM, first compound 0.03 µM): 0.72% | viability, T/C (second compound 3.16 µM, first compound 0.0949 µM): 0.44% | viability, T/C (second compound 3.16 µM, first compound 0.3 µM): 0.13% | viability, T/C (second compound 3.16 µM, first compound 0.949 µM): 0.11% | viability, T/C (second compound 3.16 µM, first compound 3 µM): 0.11% | viability, T/C (second compound 10 µM, first compound 0.00949 µM): 0.45% | viability, T/C (second compound 10 µM, first compound 0.03 µM): 0.13% | viability, T/C (second compound 10 µM, first compound 0.0949 µM): 1.03% | viability, T/C (second compound 10 µM, first compound 0.3 µM): 0.18% | viability, T/C (second compound 10 µM, first compound 0.949 µM): 0.19% | viability, T/C (second compound 10 µM, first compound 3 µM): 0.17%

CC(CO)NC(=O)c1cc(-c2ccc(Cl)cc2)nn(-c2cnn(C)c2)c1=O (stereo not drawn)
viability, T/C (compound 0.0316 µM): 98.9% and 90.2% | viability, T/C (compound 0.1 µM): 83.6% and 92.8% | viability, T/C (compound 0.316 µM): 84.6% and 97.6% | viability, T/C (compound 1 µM): 68% and 85.8% | viability, T/C (compound 3.16 µM): 88.3% and 95.1% | viability, T/C (compound 10 µM): 72.3% and 68.5% | IC50 (curve of compound): > 10000 nM

CCc1c2c(nc3ccc(O)cc13)-c1cc3c(c(=O)n1C2)COC(=O)[C@]3(O)CC + CNC(=O)c1ccc(Nc2nc(OC3CCCC3)c3c(-c4ccc5nc(C)oc5c4)c[nH]c3n2)c(OC)c1
IC50 [1]: < 3.16 nM | IC50 [2]: < 3.16 nM | IC50 [3]: < 3.16 nM | IC50 [4]: < 3.16 nM | IC50 [5]: < 3.16 nM | IC50 [6]: < 3.16 nM | viability, T/C (second compound 0.0316 µM, first compound 0.00316 µM): 12.8% | viability, T/C (second compound 0.0316 µM, first compound 0.01 µM): 6.83% | viability, T/C (second compound 0.0316 µM, first compound 0.0316 µM): 2.79% | viability, T/C (second compound 0.0316 µM, first compound 0.1 µM): 1.86% | viability, T/C (second compound 0.0316 µM, first compound 0.316 µM): 0.94% | viability, T/C (second compound 0.0316 µM, first compound 1 µM): 0.4% | viability, T/C (second compound 0.1 µM, first compound 0.00316 µM): 7.91% | viability, T/C (second compound 0.1 µM, first compound 0.01 µM): 4.87% | viability, T/C (second compound 0.1 µM, first compound 0.0316 µM): 2.4% | viability, T/C (second compound 0.1 µM, first compound 0.1 µM): 1.19% | viability, T/C (second compound 0.1 µM, first compound 0.316 µM): 0.65% | viability, T/C (second compound 0.1 µM, first compound 1 µM): 0.35% | viability, T/C (second compound 0.316 µM, first compound 0.00316 µM): 6.52% | viability, T/C (second compound 0.316 µM, first compound 0.01 µM): 5.08% | viability, T/C (second compound 0.316 µM, first compound 0.0316 µM): 2.12% | viability, T/C (second compound 0.316 µM, first compound 0.1 µM): 1.42% | viability, T/C (second compound 0.316 µM, first compound 0.316 µM): 0.6% | viability, T/C (second compound 0.316 µM, first compound 1 µM): 0.25% | viability, T/C (second compound 1 µM, first compound 0.00316 µM): 5.11% | viability, T/C (second compound 1 µM, first compound 0.01 µM): 4.25% | viability, T/C (second compound 1 µM, first compound 0.0316 µM): 2.43% | viability, T/C (second compound 1 µM, first compound 0.1 µM): 0.96% | viability, T/C (second compound 1 µM, first compound 0.316 µM): 0.45% | viability, T/C (second compound 1 µM, first compound 1 µM): 0.37% | viability, T/C (second compound 3.16 µM, first compound 0.00316 µM): 5.35% | viability, T/C (second compound 3.16 µM, first compound 0.01 µM): 4.96% | viability, T/C (second compound 3.16 µM, first compound 0.0316 µM): 1.98% | viability, T/C (second compound 3.16 µM, first compound 0.1 µM): 1.08% | viability, T/C (second compound 3.16 µM, first compound 0.316 µM): 0.6% | viability, T/C (second compound 3.16 µM, first compound 1 µM): 0.2% | viability, T/C (second compound 10 µM, first compound 0.00316 µM): 5.38% | viability, T/C (second compound 10 µM, first compound 0.01 µM): 4.45% | viability, T/C (second compound 10 µM, first compound 0.0316 µM): 2.55% | viability, T/C (second compound 10 µM, first compound 0.1 µM): 1.19% | viability, T/C (second compound 10 µM, first compound 0.316 µM): 0.79% | viability, T/C (second compound 10 µM, first compound 1 µM): 0.39%

CCN1CCN(Cc2ccc(Nc3ncc(F)c(-c4cc(F)c5nc(C)n(C(C)C)c5c4)n3)nc2)CC1
viability, T/C (compound 0.00316 µM): 87% and 87.5% | viability, T/C (compound 0.01 µM): 81.6% and 73% | viability, T/C (compound 0.0316 µM): 83.8% and 93.2% | viability, T/C (compound 0.1 µM): 110% and 88.4% | viability, T/C (compound 0.316 µM): 89.1% and 101% | viability, T/C (compound 1 µM): 81% and 78% | IC50 (curve of compound): > 1000 nM
